In patent US10933063B2 (priority 2017, dated 2021) one finds IC50 data, which are given here for 31 compounds.

SMILES strings stand for the structures. A value given as a limit tells only on which side of the number the result lay.

T1 sequence (Q06187 whole entry, looked up, species assumed): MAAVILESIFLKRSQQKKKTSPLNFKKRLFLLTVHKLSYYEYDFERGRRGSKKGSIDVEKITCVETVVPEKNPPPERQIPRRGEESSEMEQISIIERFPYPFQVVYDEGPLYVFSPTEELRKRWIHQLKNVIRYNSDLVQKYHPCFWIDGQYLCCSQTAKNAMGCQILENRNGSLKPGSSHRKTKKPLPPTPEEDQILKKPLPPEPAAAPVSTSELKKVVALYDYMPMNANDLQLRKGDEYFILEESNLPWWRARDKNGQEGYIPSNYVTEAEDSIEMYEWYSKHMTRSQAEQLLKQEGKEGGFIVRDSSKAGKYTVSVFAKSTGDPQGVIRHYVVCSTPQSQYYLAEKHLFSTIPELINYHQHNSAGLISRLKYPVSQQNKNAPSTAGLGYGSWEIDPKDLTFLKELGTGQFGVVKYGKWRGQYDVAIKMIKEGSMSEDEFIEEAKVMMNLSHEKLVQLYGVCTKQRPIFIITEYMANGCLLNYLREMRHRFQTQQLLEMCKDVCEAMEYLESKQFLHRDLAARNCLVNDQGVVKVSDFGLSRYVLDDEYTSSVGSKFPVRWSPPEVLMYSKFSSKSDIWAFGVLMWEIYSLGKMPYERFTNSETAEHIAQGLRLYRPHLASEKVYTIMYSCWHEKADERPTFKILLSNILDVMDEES

The first assay has as its target T1, BTK (Homo sapiens (Human), UniProt Q06187).
Assay: not given
Particulars: read-out: BTK Inhibition.
Regarding `CC#CC(=O)N1CCC[C@H]1c1nc(-c2ccc(Oc3ccccc3)nc2)c2cnccn12` [Example 15, (S)-1-(2-(1-(6-phenoxypyridin-3-yl)imidazo[1,5-a]pyrazin-3-yl)pyrrolidin-1-yl)but-2-yn-1-one], the IC50 is greater than 10000 nM.
On the same count and under the same terms, with `C=CC(=O)N1CCC[C@H]1c1nc(-c2ccc(Oc3cccc(Cl)c3F)cc2)c2cnccn12` [Example 22, (S)-1-(2-(1-(4-(3-chloro-2-fluorophenoxy)phenyl)imidazo[1,5-a]pyrazin-3-yl)pyrrolidin-1-yl)prop-2-en-1-one] the figure was less than 10 nM; with `C=CC(=O)N1CCC[C@H]1c1nc(-c2ccc(Oc3cccc(Cl)c3)cc2)c2cnccn12` [Example 28, (S)-1-(2-(1-(4-(3-chlorophenoxy)phenyl)imidazo[1,5-a]pyrazin-3-yl)pyrrolidin-1-yl)prop-2-en-1-one], less than 10 nM.
For `C=CC(=O)N1CCC[C@H]1c1nc(-c2ccc(Oc3cccc(OC)c3C)cc2)c2cnccn12` [Example 29, (S)-1-(2-(1-(4-(3-methoxy-2-methylphenoxy)phenyl)imidazo[1,5-a]pyrazin-3-yl)pyrrolidin-1-yl)prop-2-en-1-one], the IC50 was less than 10 nM.
The same measure, in the same setting: then `CC#CC(=O)N1CCC[C@H]1c1nc(-c2ccc(Oc3cccc(OC)c3F)cc2)c2c(C(N)=O)nccn12` [Example 38, (S)-3-(1-(but-2-ynoyl)pyrrolidin-2-yl)-1-(4-(2-fluoro-3-methoxyphenoxy)phenyl)imidazo[1,5-a]pyrazine-8-carboxamide], with greater than 10000 nM; and `C=CC(=O)N1CCCC[C@H]1c1nc(-c2ccc(Oc3cccc(C)c3)cc2)c2c(C)nccn12` [Example 40, (S)-1-(2-(8-methyl-1-(4-(m-tolyloxy)phenyl)imidazo[1,5-a]pyrazin-3-yl)piperidin-1-yl)prop-2-en-1-one], with less than 10 nM.
As for `C=CC(=O)N1CCCC[C@H]1c1nc(-c2ccc(Oc3cccc(OC)c3)cc2)c2c(C)nccn12` [Example 48, (S)-1-(2-(1-(4-(3-methoxyphenoxy)phenyl)-8-methylimidazo[1,5-a]pyrazin-3-yl)piperidin-1-yl)prop-2-en-1-one], the IC50 is less than 10 nM.
On the same count and under the same terms, with `C=CC(=O)N1CCCC[C@H]1c1nc(-c2ccc(Oc3cccc(F)c3)cc2)c2c(C)nccn12` [Example 55, (S)-1-(2-(1-(4-(3-fluorophenoxy)phenyl)-8-methylimidazo[1,5-a]pyrazin-3-yl)piperidin-1-yl)prop-2-en-1-one] the figure was less than 10 nM; with `C=CC(=O)N1CCC[C@H]1c1nc(-c2ccc(Oc3cccc(OC)c3F)cc2)c2c(C)nccn12` [Example 61, (S)-1-(2-(1-(4-(2-fluoro-3-methoxyphenoxy)phenyl)-8-methylimidazo[1,5-a]pyrazin-3-yl)pyrrolidin-1-yl)prop-2-en-1-one], less than 10 nM.
Same read-out and setting: with `C=CC(=O)N1CCC[C@H]1c1nc(-c2ccc(Oc3cccc(OC)c3F)cc2)c2cncc(C)n12` [Example 62, (S)-1-(2-(1-(4-(2-fluoro-3-methoxyphenoxy)phenyl)-5-methylimidazo[1,5-a]pyrazin-3-yl)pyrrolidin-1-yl)prop-2-en-1-one] the figure was less than 10 nM; with `C=CC(=O)N1CCC[C@H]1c1nc(-c2ccc(Oc3cccc(OC)c3F)cc2)c2c(C)ncc(C)n12` [Example 64, (S)-1-(2-(1-(4-(2-fluoro-3-methoxyphenoxy)phenyl)-5,8-dimethylimidazo[1,5-a]pyrazin-3-yl)pyrrolidin-1-yl)prop-2-en-1-one], less than 10 nM; with `C=CC(=O)N1CC[C@@H](c2nc(-c3ccc(Oc4cccc(OC)c4F)cc3)c3cnccn23)C1` [Example 68, (R)-1-(3-(1-(4-(2-fluoro-3-methoxyphenoxy)phenyl)imidazo[1,5-a]pyrazin-3-yl)pyrrolidin-1-yl)prop-2-en-1-one], less than 10 nM.
Turning to `CC#CC(=O)N1CC[C@@H](c2nc(-c3ccc(Oc4cccc(OC)c4F)cc3)c3cnccn23)C1` [Example 69, (R)-1-(3-(1-(4-(2-fluoro-3-methoxyphenoxy)phenyl)imidazo[1,5-a]pyrazin-3-yl)pyrrolidin-1-yl)but-2-yn-1-one], the IC50 was less than 10 nM.
Same read-out and setting: then `C=CC(=O)N1CC[C@@H](c2nc(-c3ccc(Oc4cccc(OC)c4F)cc3)c3c(C)ncc(C)n23)C1` [Example 74, (R)-1-(3-(1-(4-(2-fluoro-3-methoxyphenoxy)phenyl)-5,8-dimethylimidazo[1,5-a]pyrazin-3-yl)pyrrolidin-1-yl)prop-2-en-1-one], with less than 10 nM; and `C=CC(=O)N1CCC[C@H]1c1nc(-c2ccc(Oc3cccc(OC)c3F)cc2)c2cncc(OC)n12` [Example 82, (S)-1-(2-(1-(4-(2-fluoro-3-methoxyphenoxy)phenyl)-5-methoxyimidazo[1,5-a]pyrazin-3-yl)pyrrolidin-1-yl)prop-2-en-1-one], with less than 10 nM.
The same measure, in the same setting: with `C=CC(=O)N1CC[C@@H](c2nc(-c3ccc(Oc4cccc(OC)c4F)cc3)c3cncc(OC)n23)C1` [Example 85, (R)-1-(3-(1-(4-(2-fluoro-3-methoxyphenoxy)phenyl)-5-methoxyimidazo[1,5-a]pyrazin-3-yl)pyrrolidin-1-yl)prop-2-en-1-one] the figure was less than 10 nM; with `CC#CC(=O)N1CC[C@@H](c2nc(-c3ccc(Oc4cccc(OC)c4F)cc3)c3cncc(OC)n23)C1` [Example 86, (R)-1-(3-(1-(4-(2-fluoro-3-methoxyphenoxy)phenyl)-5-methoxyimidazo[1,5-a]pyrazin-3-yl)pyrrolidin-1-yl)but-2-yn-1-one], less than 10 nM.

Another assay deals with T1, BTK. Briefly: biochemical.
Settings: not given
`CC#CC(=O)N1CCCC[C@H]1c1nc(-c2ccc(C(=O)Nc3ccccn3)cc2)c2cncc(C)n12` [Example 187, (S)-4-(3-(1-(but-2-ynoyl)piperidin-2-yl)-5-methylimidazo[1,5-a]pyrazin-1-yl)-N-(pyridin-2-yl)benzamide] returned an IC50 of 1000 to 10000 nM.
Still for that read-out and setting: then `C=CC(=O)N1CCCC[C@H]1c1nc(-c2ccc(C(=O)Nc3ccccn3)cc2)c2c(C)ncc(C)n12` [Example 188, (S)-4-(3-(1-acryloylpiperidin-2-yl)-5,8-dimethylimidazo [1,5-a]pyrazin-1-yl)-N-(pyridin-2-yl)benzamide], with 10 to 100 nM.
In the case of `CC#CC(=O)N1CCCC[C@H]1c1nc(-c2ccc(C(=O)Nc3ccccn3)cc2)c2c(C)ncc(C)n12` [Example 189, (S)-4-(3-(1-(but-2-ynoyl)piperidin-2-yl)-5,8-dimethylimidazo[1,5-a]pyrazin-1-yl)-N-(pyridin-2-yl)benzamide], the IC50 is 100 to 1000 nM.
Consider `CC#CC(=O)N1CC[C@@H](c2nc(-c3ccc(C(=O)Nc4ccccn4)cc3)c3cncc(OCC)n23)C1` [Example 193, (R)-4-(3-(1-(but-2-ynoyl)pyrrolidin-3-yl)-5-ethoxyimidazo[1,5-a]pyrazin-1-yl)-N-(pyridin-2-yl)benzamide], for which the IC50 fell in the range of 100 to 1000 nM.
Same read-out and setting: with `C=CC(=O)N1CC[C@@H](c2nc(-c3ccc(C(=O)Nc4cc(C(F)(F)F)ccn4)cc3)c3cnccn23)C1` [Example 195, (R)-4-(3-(1-acryloylpyrrolidin-3-yl)imidazo[1,5-a]pyrazin-1-yl)-N-(4-(trifluoromethyl)pyridin-2-yl)benzamide] the figure was 10 to 100 nM; with `C=CC(=O)N1CCCC[C@H]1c1nc(-c2ccc(C(=O)Nc3cc(C(F)(F)F)ccn3)cc2)c2c(C(F)(F)F)nccn12` [Example 201, (S)-4-(3-(1-acryloylpiperidin-2-yl)-8-(trifluoromethyl)imidazo[1,5-a]pyrazin-1-yl)-N-(4-(trifluoromethyl)pyridin-2-yl)benzamide], 1000 to 10000 nM; with `CC#CC(=O)N1CC[C@@H](c2nc(-c3ccc(C(=O)Nc4ccccn4)cc3)c3c(C)ncc(OCC)n23)C1` [Example 205, (R)-4-(3-(1-(but-2-ynoyl)pyrrolidin-3-yl)-5-ethoxy-8-methylimidazo[1,5-a]pyrazin-1-yl)-N-(pyridin-2-yl)benzamide], 10 to 100 nM.
On the same count and under the same terms, then `CC#CC(=O)N1CCC[C@H]1c1nc(-c2ccc(C(=O)Nc3ccccn3)cc2)c2c(CO)nccn12` [Example 207, (S)-4-(3-(1-(but-2-ynoyl)pyrrolidin-2-yl)-8-(hydroxymethyl)imidazo [1,5-a]pyrazin-1-yl)-N-(pyridin-2-yl)benzamide], with 100 to 1000 nM; and `CC#CC(=O)N1CCC[C@H]1c1nc(-c2ccc(C(=O)Nc3cc(C(F)(F)F)ccn3)cc2F)c2c(CO)nccn12` [Example 208, (S)-4-(3-(1-(but-2-ynoyl)pyrrolidin-2-yl)-8-(hydroxymethyl)imidazo [1,5-a]pyrazin-1-yl)-3-fluoro-N-(4-(trifluoromethyl)pyridin-2-yl)benzamide], with 100 to 1000 nM; and `CC#CN1CCC[C@H]1c1nc(-c2ccc(C(=O)Nc3cc(C(F)(F)F)ccn3)cc2)c2c(CF)nccn12` [Example 209, (S)-4-(8-(fluoromethyl)-3-(1-(prop-1-yn-1-yl)pyrrolidin-2-yl)imidazo [1,5-a]pyrazin-1-yl)-N-(4-(trifluoromethyl)pyridin-2-yl)benzamide], with 100 to 1000 nM.
On the same count and under the same terms, with `CC#CN1CCC[C@H]1c1nc(-c2ccc(C(=O)Nc3cc(C(F)(F)F)ccn3)cc2)c2c(CO)nccn12` [Example 210, (S)-4-(8-(hydroxymethyl)-3-(1-(prop-1-yn-1-yl)pyrrolidin-2-yl)imidazo [1,5-a]pyrazin-1-yl)-N-(4-(trifluoromethyl)pyridin-2-yl)benzamide] the figure was 100 to 1000 nM; with `CC#CC(=O)N1CC[C@@H](c2nc(-c3ccc(C(=O)Nc4cc(C(F)(F)F)ccn4)cc3)c3cnccn23)C1` [Example 211, (R)-4-(3-(1-(but-2-ynoyl)pyrrolidin-3-yl)imidazo[1,5-a]pyrazin-1-yl)-N-(4-(trifluoromethyl)pyridin-2-yl)benzamide], 10 to 100 nM; with `CC#CC(=O)N1CC[C@@H](c2nc(-c3ccc(C(=O)Nc4cc(C(F)(F)F)ccn4)cc3F)c3cnccn23)C1` [Example 212, (R)-4-(3-(1-(but-2-ynoyl)pyrrolidin-3-yl)imidazo [1,5-a]pyrazin-1-yl)-3-fluoro-N-(4-(trifluoromethyl)pyridin-2-yl)benzamide], 10 to 100 nM.
Compound `COc1cccc(Oc2ccc(-c3nc([C@@H]4CCC5CCC(=O)N5C4)n4ccncc34)cc2)c1F` (stereo partly drawn) [Example 213, (6R)-6-(1-(4-(2-fluoro-3-methoxyphenoxy)phenyl)imidazo[1,5-a]pyrazin-3-yl)hexahydroindolizin-3(2H)-one] displayed an IC50 of 100 to 1000 nM.
